In US10405547B2, “Substituted cyclic amides as herbicides” (FMC Corporation, priority 2015, dated 2019):

Columns and labels:
Type in all cases: in vivo
[1] = tested on: barnyardgrass (Echinochloa crus-galli); experiment: Test A postemergence, barnyardgrass; settings: visual injury, 0 to 100 scale (0 no effect, 100 complete control), approximately 10 days
In short: (§1)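 Visual injury on a 0 to 100 scale, about 10 days post-spray in the greenhouse. Postemergence plants measured 2–10 cm at one to two leaves; preemergence pots received a directed soil spray. Soil was a loam–sand blend.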

[2] = tested on: ragweed (common ragweed, Ambrosia elatior); experiment: Test A preemergence, ragweed; settings: 0 to 100 scale (0 no effect, 100 complete control)
In short: as §1

[3] = tested on: sedge, umbrella (small-flower umbrella sedge, Cyperus difformis); experiment: Test B flooded paddy test, umbrella sedge; settings: 250 g ai/ha, applied to paddy water, visual rating after 13 to 15 days, scale 0 (no effect) to 100 (complete control)
Text: (§2) At time of treatment, test pots were flooded to 3 cm above the soil surface, treated by application of test compounds directly to the paddy water, and then maintained at that water depth for the duration of the test. Treated plants and controls were maintained in a greenhouse for 13 to 15 days, after which time all species were compared to controls and visually evaluated. […] A dash (-) response means no test result.

[4] = tested on: pigweed (Amaranthus retroflexus); experiment: Test A preemergence, pigweed; settings: 0 to 100 scale (0 no effect, 100 complete control)
In short: as §1

[5] = tested on: ryegrass, Italian (Lolium multiflorum); experiment: Test A preemergence, Italian ryegrass; settings: 0 to 100 scale (0 no effect, 100 complete control)
In short: as §1

[6] = tested on: blackgrass (Alopecurus myosuroides); experiment: Test A postemergence, blackgrass; settings: visual injury, 0 to 100 scale (0 no effect, 100 complete control), approximately 10 days
In short: as §1

[7] = tested on: barnyardgrass (Echinochloa crus-galli); experiment: Test A preemergence, barnyardgrass; settings: 0 to 100 scale (0 no effect, 100 complete control)
In short: as §1

[8] = tested on: galium (catchweed bedstraw, Galium aparine); experiment: Test A postemergence, galium; settings: visual injury, 0 to 100 scale (0 no effect, 100 complete control), approximately 10 days
In short: as §1

kochia (Kochia scoparia) [9] = experiment: Test A postemergence, kochia; settings: visual injury, 0 to 100 scale (0 no effect, 100 complete control), approximately 10 days
In short: as §1

kochia (Kochia scoparia) [10] = experiment: Test A preemergence, kochia; settings: 0 to 100 scale (0 no effect, 100 complete control)
In short: as §1

[11] = tested on: barnyardgrass (Echinochloa crus-galli); experiment: Test B flooded paddy test, barnyardgrass; settings: 250 g ai/ha, applied to paddy water, visual rating after 13 to 15 days, scale 0 (no effect) to 100 (complete control)
Text: as §2

[12] = tested on: pigweed (Amaranthus retroflexus); experiment: Test A postemergence, pigweed; settings: visual injury, 0 to 100 scale (0 no effect, 100 complete control), approximately 10 days
In short: as §1

[13] = tested on: foxtail, giant (Setaria faberii); experiment: Test A postemergence, giant foxtail; settings: visual injury, 0 to 100 scale (0 no effect, 100 complete control), approximately 10 days
In short: as §1

rice (Oryza sativa) = experiment: Test B flooded paddy test, rice; settings: 250 g ai/ha, applied to paddy water, visual rating after 13 to 15 days, scale 0 (no effect) to 100 (complete control)
Text: as §2

[14] = tested on: foxtail, giant (Setaria faberii); experiment: Test A preemergence, giant foxtail; settings: 0 to 100 scale (0 no effect, 100 complete control)
In short: as §1

[15] = tested on: ducksalad (Heteranthera limosa); experiment: Test B flooded paddy test, ducksalad; settings: 250 g ai/ha, applied to paddy water, visual rating after 13 to 15 days, scale 0 (no effect) to 100 (complete control)
Text: as §2

corn (Zea mays) = experiment: Test A postemergence, corn; settings: visual injury, 0 to 100 scale (0 no effect, 100 complete control), approximately 10 days
In short: as §1

[16] = tested on: wheat (Triticum aestivum); experiment: Test A postemergence, wheat; settings: visual injury, 0 to 100 scale (0 no effect, 100 complete control), approximately 10 days
In short: as §1

[17] = tested on: ragweed (common ragweed, Ambrosia elatior); experiment: Test A postemergence, ragweed; settings: visual injury, 0 to 100 scale (0 no effect, 100 complete control), approximately 10 days
In short: as §1

[18] = tested on: ryegrass, Italian (Lolium multiflorum); experiment: Test A postemergence, Italian ryegrass; settings: visual injury, 0 to 100 scale (0 no effect, 100 complete control), approximately 10 days
In short: as §1

SMILES	Plant response rating, Barnyardgrass ([1]; 125 g ai/ha)	Plant response rating, Barnyardgrass ([1]; 500 g ai/ha)	Plant response rating, Ragweed ([2]; 125 g ai/ha)	Plant response rating, Ragweed ([2]; 500 g ai/ha)	Plant response rating, Sedge, Umbrella (Flood) [3]	Plant response rating, Pigweed ([4]; 125 g ai/ha)	Plant response rating, Pigweed ([4]; 500 g ai/ha)	Plant response rating, Ryegrass, Italian ([5]; 125 g ai/ha)	Plant response rating, Ryegrass, Italian ([5]; 500 g ai/ha)	Plant response rating, Blackgrass ([6]; 125 g ai/ha)	Plant response rating, Blackgrass ([6]; 500 g ai/ha)	Plant response rating, Barnyardgrass ([7]; 125 g ai/ha)	Plant response rating, Barnyardgrass ([7]; 500 g ai/ha)	Plant response rating, Galium ([8]; 125 g ai/ha)	Plant response rating, Galium ([8]; 500 g ai/ha)	Plant response rating, Kochia (kochia (Kochia scoparia) [10]; 125 g ai/ha)	Plant response rating, Kochia (kochia (Kochia scoparia) [10]; 500 g ai/ha)	Plant response rating, Barnyardgrass (Flood) [11]	Plant response rating, Pigweed ([12]; 125 g ai/ha)	Plant response rating, Pigweed ([12]; 500 g ai/ha)	further results
CN1CC(c2cccc(Oc3ncc(F)cn3)c2)C(C(=O)Nc2cccc(F)c2F)C1=O (single isomer, unassigned) [Compound 38]	100	100	40	80	0	80	100	80	100	70	70	90	100	50	70	30	70	60	50	70	Plant response rating, Kochia (kochia (Kochia scoparia) [9]; 125 g ai/ha): 30; Plant response rating, Kochia (kochia (Kochia scoparia) [9]; 500 g ai/ha): 60; Plant response rating, Foxtail, Giant ([13]; 125 g ai/ha): 90; Plant response rating, Foxtail, Giant ([13]; 500 g ai/ha): 90; Plant response rating, Rice (Flood) (rice (Oryza sativa)): 0; Plant response rating, Foxtail, Giant ([14]; 125 g ai/ha): 100; Plant response rating, Foxtail, Giant ([14]; 500 g ai/ha): 100; Plant response rating, Ducksalad (Flood) [15]: 80; Plant response rating, Corn (corn (Zea mays); 125 g ai/ha): 90; Plant response rating, Corn (corn (Zea mays); 500 g ai/ha): 100; Plant response rating, Wheat ([16]; 125 g ai/ha): 50; Plant response rating, Wheat ([16]; 500 g ai/ha): 70; Plant response rating, Ragweed ([17]; 125 g ai/ha): 20; Plant response rating, Ragweed ([17]; 500 g ai/ha): 80; Plant response rating, Ryegrass, Italian ([18]; 125 g ai/ha): 70; Plant response rating, Ryegrass, Italian ([18]; 500 g ai/ha): 80
CN1CC(c2cccc(Oc3ccc(F)cn3)c2)C(C(=O)Nc2cccc(F)c2F)C1=O (single isomer, unassigned) [Compound 61]	70	80	30	60	0	70	90	80	90	40	50	90	90	60	70	60	80	40	40	70	Plant response rating, Foxtail, Giant ([13]; 125 g ai/ha): 90; Plant response rating, Foxtail, Giant ([13]; 500 g ai/ha): 90; Plant response rating, Rice (Flood) (rice (Oryza sativa)): 0; Plant response rating, Foxtail, Giant ([14]; 125 g ai/ha): 90; Plant response rating, Foxtail, Giant ([14]; 500 g ai/ha): 90; Plant response rating, Ducksalad (Flood) [15]: 100; Plant response rating, Corn (corn (Zea mays); 125 g ai/ha): 70; Plant response rating, Corn (corn (Zea mays); 500 g ai/ha): 90; Plant response rating, Wheat ([16]; 125 g ai/ha): 50; Plant response rating, Wheat ([16]; 500 g ai/ha): 80; Plant response rating, Ragweed ([17]; 125 g ai/ha): 40; Plant response rating, Ragweed ([17]; 500 g ai/ha): 50; Plant response rating, Ryegrass, Italian ([18]; 125 g ai/ha): 70; Plant response rating, Ryegrass, Italian ([18]; 500 g ai/ha): 70
O=C1NCC(c2cccc(Oc3ccc(C(F)(F)F)cn3)c2)C1C(=O)Nc1ccccc1F (single isomer, unassigned) [Compound 62]	70	90	0	50	0	30	50	0	20	0	30	90	90	30	60	30	60	40	0	30	Plant response rating, Foxtail, Giant ([13]; 125 g ai/ha): 80; Plant response rating, Foxtail, Giant ([13]; 500 g ai/ha): 90; Plant response rating, Rice (Flood) (rice (Oryza sativa)): 20; Plant response rating, Foxtail, Giant ([14]; 125 g ai/ha): 90; Plant response rating, Foxtail, Giant ([14]; 500 g ai/ha): 90; Plant response rating, Ducksalad (Flood) [15]: 100; Plant response rating, Corn (corn (Zea mays); 125 g ai/ha): 30; Plant response rating, Corn (corn (Zea mays); 500 g ai/ha): 30; Plant response rating, Wheat ([16]; 125 g ai/ha): 0; Plant response rating, Wheat ([16]; 500 g ai/ha): 30; Plant response rating, Ragweed ([17]; 125 g ai/ha): 0; Plant response rating, Ragweed ([17]; 500 g ai/ha): 40; Plant response rating, Ryegrass, Italian ([18]; 125 g ai/ha): 0; Plant response rating, Ryegrass, Italian ([18]; 500 g ai/ha): 30
